Each structure is given as a SMILES string. ≈ marks a conversion by molar mass, not a printed value. Where two headings read alike, the source gives them in different places.

Data set [1] relates to monkey plasma albumin. Description: Plasma protein binding (PPB), monkey plasma. Conditions: ultracentrifugation, 37° C., 4 h. The class given is in vitro ADME. The protocol:
The binding degree of the assay compound to human/mouse/rat/canine/monkey plasma albumin was studied.
• 1) Matrix preparation: on the day of the assay, plasma was thawed in cold water and centrifuged at 3220 rpm for 5 min to remove all clots. The pH of the resulting plasma was measured and adjusted to 7.4±0.1 using 1% phosphoric acid or 1N sodium hydroxide as needed. • 2) Dilution procedure for the assay compound: the assay compound was dissolved in dimethyl sulfoxide (DMSO) to prepare stock solutions with concentrations of 10 mM and 2 mM, respectively. A 40 μM working solution was prepared by diluting 2 μL of stock solution (2 mM) with 98 μL of DMSO. A 400 μM working solution of the control compound was prepared by diluting 10 μL of stock solution with 240 μL of DMSO. The working solution of the compound (5 μL) was mixed well with a blank matrix (995 μL) at a ratio of 1:200 to prepare a loading matrix.
• a) An equal volume of 30 μL of loading matrix (n=2) was transferred to a sample collection plate to prepare a time 0 (TO) sample for residue determination. The sample was immediately matched with the corresponding blank buffer to a final volume of 60 μL, and the volume ratio of plasma to buffer in each well was 1:1. […] The mixture was centrifuged at 4000 rpm for 20 min and 100 μL of supernatant from each sample was analyzed by LC-MS/MS.

Data set [2] is described as follows: Solubility study (HPLC-UV, 24 h shaking). Type of data set: physicochemical. Conditions: 25 °C, aqueous buffer, kinetic from dmso stock, 2% DMSO, max 200 μM. How it is done:
The solubility of a compound was determined to evaluate the solubility property of the compound.
• 1) Buffer A (pH 2.0): 50 mM phosphate buffer, pH 2.0; Buffer B (pH 6.5): 50 mM phosphate buffer, pH 6.5; Buffer C (pH 7.4): 50 mM phosphate buffer, pH 7.4; • 2) Preparation of standard solution: • a) 50% acetonitrile solution and 50% buffer solution were mixed to obtain a diluent; • b) 10 mM (10 μL/compound) compound stock solution was added to the diluent (490 μL/compound) to obtain 200 μM detection standard solution; • c) The 200 μM UV detection standard solution was diluted with 10-fold and 200-fold volume of diluents to obtain 20 μM and 1 μM UV standard solutions, respectively; • d) 1 μM, 20 μM, and 200 μM UV standard solutions were used as standard solutions for solubility assay.
• a) The compound was dissolved in DMSO to prepare a 10 mM stock solution. […] The pH of the corresponding solubility solutions was 2.0, 6.5 and 7.4, respectively. The theoretical maximum concentration of the assay compound is 200 μM with 2% DMSO; • c) The plate was shaken in a shaker at room temperature (25±2° C.) at 600 rpm for 24 hours; • d) 200 μL of the solution was pipetted from the 96-well plate, filtered with suction by a vacuum suction filtration device, and transferred into a new 96-well plate as an assay sample; • e) The compound concentration was determined using HPLC-UV.
• f) Three UV standard solutions from low concentration to high concentration (1 μM, 20 μM, 200 μM) were injected into HPLC, and then the assay sample of the compound to be assayed was injected; • g) The UV chromatographic peaks were integrated, and the solubility of the sample was calculated.

Data set [3] relates to HT29 tumor cells. Nature of the data set: In vitro cell proliferation inhibition (CellTiterGlo). Type of data set: cell-based. Conditions: Homo sapiens, HT-29. How it is done:
The ability of compounds to inhibit the proliferation of HT29 tumor cells was measured.
The assay compound was dissolved in 100% DMSO to prepare 10 mM stock solution.
• a) UV light of a biological safety cabin was turned on, and 30 minutes were counted down; • b) In a 37° C. water bath, RPMI1640 medium and trypsin were preheated; • c) After completion of the UV irradiation, the biological safety cabin was opened. The preheated medium, trypsin and phosphate buffered saline (PBS), etc. were wiped with alcohol and placed in the biological safety cabin; • d) HT29 cells were removed from the incubator, and the old medium was removed in biological safety cabin. 10 ml of PBS was added. […] The culture vessel was shaken horizontally so that the trypsin evenly covered the cells at the bottom, and placed in an incubator for 2 minutes; • f) Cell digestion was stopped with complete medium, and the cell suspension was pipetted to homogeneity and counted; • g) According to the result of cell counting, the density of cell suspension was adjusted to 1500 cells per well, and the cell suspension was seeded at 50 μl per well; • h) The stock solution of compounds was serially diluted in DMSO solution, and compounds were added to cell plate using Tecan; • i) The compound-added cell plate and CellTiterGlo were equilibrated at room temperature, and 25 microliters of CellTiterGlo was then added to each well. […]

Turning to `Cc1cccc(CN2C(=O)c3nc(-c4nc(Nc5ccnn5C)ncc4C)sc3C2(C)C)n1` [WX001], in data set [1], the “Plasma protein binding rate (unbound %)” value stood at 2.6%. In addition, the solubility (usually the concentration that dissolves in the medium under given conditions) at 24 h in data set [2] (50 mM phosphate buffer pH 2.0, 25±2° C., read-out: Solubility pH = 2.0) was more than 200 µM; in data set [2] (50 mM phosphate buffer pH 6.5, 25±2° C., read-out: Solubility pH = 6.5) it was 6.2 µM (≈ 2.86 µg/mL); in data set [2] (50 mM phosphate buffer pH 7.4, 25±2° C., read-out: Solubility pH = 7.4), 7.08 µM (≈ 3.26 µg/mL). The IC50 (as a rule, the concentration that inhibits the measured activity by half) in data set [3] was 21 nM.

The record behind these values is patent US20240300975A1, “DIMETHYL-SUBSTITUTED THIAZOLOLACTAM COMPOUND AND USE THEREOF” (D3 Bio (Wuxi) Co., Ltd., priority 2021, published 2024).
